# Earlier results in patent publication US12421495B2, “Compositions and methods for selective phagocytosis of human cancer cells” (THE TRUSTEES OF THE UNIVERSITY OF PENNSYLVANIA, priority 2015, dated 2025).
# System: tdTomato A549 tumors
# Details: same tumor model; Nair et al. 2016
structure (smiles),measurement,value
CC(=O)O[C@H]1C(=O)[C@@]2(C)[C@H]([C@H](OC(=O)c3ccccc3)[C@]3(O)C[C@H](OC(=O)[C@H](O)[C@@H](NC(=O)c4ccccc4)c4ccccc4)C(C)=C1C3(C)C)[C@]1(OC(C)=O)CO[C@@H]1C[C@@H]2O [Paclitaxel],tumor shrinkage by day 10,−25%
